Assay results reported in PubChem BioAssay AID1963964 (Molecular Pharmacology Branch, DTP, NCI, 2024).

Test system: 997726-040-R-J2-PDC tumor spheroids, viability
Test: Anticancer human tumor 997726-040-R-J2-PDC patient-derived squamous cell lung carcinoma cell line growth inhibition [PI3K]
Conditions: spheroids with HUVEC and MSC; for IC50: curve of first compound; for viability, T/C: stronger effect = lower value
Procedure, shortened: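 Complex 3D spheroids (cancer cells + endothelial HUVEC + mesenchymal stem cells); drug pairs of targeted agent x inavolisib/alpelisib/duvelisib/copanlisib; half-log series from ~Cmax, max 10 microM if Cmax unknown; endpoint viability.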

[1] = second compound 0.00316 µM, first compound 0.0316 µM
[2] = second compound 0.00316 µM, first compound 0.1 µM
[3] = second compound 0.00316 µM, first compound 0.316 µM
[4] = second compound 0.00316 µM, first compound 1 µM
[5] = second compound 0.00316 µM, first compound 3.16 µM
[6] = second compound 0.00316 µM, first compound 10 µM
[7] = second compound 0.01 µM, first compound 0.0316 µM
[8] = second compound 0.01 µM, first compound 0.1 µM
[9] = second compound 0.01 µM, first compound 0.316 µM
[10] = second compound 0.01 µM, first compound 1 µM
[11] = second compound 0.01 µM, first compound 3.16 µM
[12] = second compound 0.01 µM, first compound 10 µM
[13] = second compound 0.0316 µM, first compound 0.0316 µM
[14] = second compound 0.0316 µM, first compound 0.1 µM
[15] = second compound 0.0316 µM, first compound 0.316 µM
[16] = second compound 0.0316 µM, first compound 1 µM
[17] = second compound 0.0316 µM, first compound 3.16 µM
[18] = second compound 0.0316 µM, first compound 10 µM
[19] = second compound 0.1 µM, first compound 0.0316 µM
[20] = second compound 0.1 µM, first compound 0.1 µM
[21] = second compound 0.1 µM, first compound 0.316 µM
[22] = second compound 0.1 µM, first compound 1 µM
[23] = second compound 0.1 µM, first compound 3.16 µM
[24] = second compound 0.1 µM, first compound 10 µM
[25] = second compound 0.316 µM, first compound 0.0316 µM
[26] = second compound 0.316 µM, first compound 0.1 µM
[27] = second compound 0.316 µM, first compound 0.316 µM
[28] = second compound 0.316 µM, first compound 1 µM
[29] = second compound 0.316 µM, first compound 3.16 µM
[30] = second compound 0.316 µM, first compound 10 µM
[31] = second compound 1 µM, first compound 0.0316 µM
[32] = second compound 1 µM, first compound 0.1 µM
[33] = second compound 1 µM, first compound 0.316 µM
[34] = second compound 1 µM, first compound 1 µM
[35] = second compound 1 µM, first compound 3.16 µM
[36] = second compound 1 µM, first compound 10 µM
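Also: spheroids exposed to compounds for seven days before readout.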

For C=CC(=O)N1CCN(c2nc(=O)n(-c3c(C)ccnc3C(C)C)c3nc(-c4c(O)cccc4F)c(F)cc23)C(C)C1 (stereo unspecified) + CC(Nc1ccc2c(c1)OCCn1cc(N3C(=O)OCC3C(F)F)nc1-2)C(N)=O, the IC50 (second compound 0.00316 µM) was > 10000 nM, the IC50 (second compound 0.01 µM) was > 10000 nM and the IC50 (second compound 0.0316 µM) was > 10000 nM. For the same compound, the IC50 (second compound 0.1 µM) was < 31.6 nM, the IC50 (second compound 0.316 µM) was < 31.6 nM and the IC50 (second compound 1 µM) was < 31.6 nM. The viability, T/C [1] was 88.3%, the viability, T/C [2] was 93.5% and the viability, T/C [3] was 96.6%. The viability, T/C [4] was 103%, the viability, T/C [5] was 119% and the viability, T/C [6] was 114%. It also gave a viability, T/C [7] of 87%, a viability, T/C [8] of 81.7% and a viability, T/C [9] of 88.5%. The viability, T/C [10] was 81.7%, the viability, T/C [11] was 106% and the viability, T/C [12] was 98.8%. The viability, T/C [13] was 60.2%, the viability, T/C [14] was 63.4% and the viability, T/C [15] was 67.5%. The viability, T/C [16] was 67.2%, the viability, T/C [17] was 72.1% and the viability, T/C [18] was 82.3%. For the same compound, the viability, T/C [19] was 43.7%, the viability, T/C [20] was 47.3% and the viability, T/C [21] was 43.3%. The viability, T/C [22] was 49.1%, the viability, T/C [23] was 54.4% and the viability, T/C [24] was 48.4%. It also gave a viability, T/C [25] of 31.6%, a viability, T/C [26] of 32.8% and a viability, T/C [27] of 33.8%. It also gave a viability, T/C [28] of 33.4%, a viability, T/C [29] of 37.7% and a viability, T/C [30] of 33.5%. It also gave a viability, T/C [31] of 26.7%, a viability, T/C [32] of 27.5% and a viability, T/C [33] of 29.5%. For the same compound, the viability, T/C [34] was 26.7%, the viability, T/C [35] was 30% and the viability, T/C [36] was 27.2%.

With CC(Cn1ccc(-c2ccc(C#N)c(Cl)c2)n1)NC(=O)c1cc(C(C)O)[nH]n1 (stereo unspecified) + CC(Nc1ccc2c(c1)OCCn1cc(N3C(=O)OCC3C(F)F)nc1-2)C(N)=O the IC50 (second compound 0.00316 µM) was > 10000 nM, the IC50 (second compound 0.01 µM) was > 10000 nM and the IC50 (second compound 0.0316 µM) was > 10000 nM. The IC50 (second compound 0.1 µM) was < 31.6 nM, the IC50 (second compound 0.316 µM) was < 31.6 nM and the IC50 (second compound 1 µM) was < 31.6 nM. It also gave a viability, T/C [1] of 85.8%, a viability, T/C [2] of 88.3% and a viability, T/C [3] of 89.4%. The viability, T/C [4] was 91.4%, the viability, T/C [5] was 97.3% and the viability, T/C [6] was 85.4%. The viability, T/C [7] was 78.3%, the viability, T/C [8] was 81% and the viability, T/C [9] was 80%. The viability, T/C [10] was 84.5%, the viability, T/C [11] was 84.1% and the viability, T/C [12] was 89.4%. For the same compound, the viability, T/C [13] was 61.1%, the viability, T/C [14] was 70.2% and the viability, T/C [15] was 67.3%. The viability, T/C [16] was 62.6%, the viability, T/C [17] was 63.8% and the viability, T/C [18] was 64.7%. For the same compound, the viability, T/C [19] was 48.5%, the viability, T/C [20] was 45.5% and the viability, T/C [21] was 54.1%. It also gave a viability, T/C [22] of 51.4%, a viability, T/C [23] of 47.3% and a viability, T/C [24] of 48.2%. For the same compound, the viability, T/C [25] was 39%, the viability, T/C [26] was 32.9% and the viability, T/C [27] was 32.8%. It also gave a viability, T/C [28] of 33.7%, a viability, T/C [29] of 35.8% and a viability, T/C [30] of 31.5%. The viability, T/C [31] was 31.1%, the viability, T/C [32] was 26.7% and the viability, T/C [33] was 26.6%. It also gave a viability, T/C [34] of 30.5%, a viability, T/C [35] of 28.6% and a viability, T/C [36] of 24.5%.

In the case of Cn1nccc1Nc1nccc(-c2ccn(C(CO)c3ccc(Cl)c(F)c3)c(=O)c2)n1 (stereo unspecified) + CC(Nc1ccc2c(c1)OCCn1cc(N3C(=O)OCC3C(F)F)nc1-2)C(N)=O, the IC50 (second compound 0.00316 µM) is reported as > 10000 nM, the IC50 (second compound 0.01 µM) is reported as 4670 nM and the IC50 (second compound 0.0316 µM) is reported as 601 nM. For the same compound, the IC50 (second compound 0.1 µM) was < 31.6 nM, the IC50 (second compound 0.316 µM) was < 31.6 nM and the IC50 (second compound 1 µM) was < 31.6 nM. It also gave a viability, T/C [1] of 93%, a viability, T/C [2] of 75.4% and a viability, T/C [3] of 63.5%. It also gave a viability, T/C [4] of 64.3%, a viability, T/C [5] of 55.9% and a viability, T/C [6] of 49.4%. For the same compound, the viability, T/C [7] was 74.5%, the viability, T/C [8] was 72.6% and the viability, T/C [9] was 70.2%. For the same compound, the viability, T/C [10] was 58.9%, the viability, T/C [11] was 58.7% and the viability, T/C [12] was 39.6%. It also gave a viability, T/C [13] of 65.2%, a viability, T/C [14] of 57.5% and a viability, T/C [15] of 52%. For the same compound, the viability, T/C [16] was 47.3%, the viability, T/C [17] was 43.9% and the viability, T/C [18] was 31.8%. It also gave a viability, T/C [19] of 44.6%, a viability, T/C [20] of 39.5% and a viability, T/C [21] of 34.8%. For the same compound, the viability, T/C [22] was 32%, the viability, T/C [23] was 33.5% and the viability, T/C [24] was 23.6%. It also gave a viability, T/C [25] of 35.5%, a viability, T/C [26] of 34.4% and a viability, T/C [27] of 30%. For the same compound, the viability, T/C [28] was 31%, the viability, T/C [29] was 27.9% and the viability, T/C [30] was 20%. The viability, T/C [31] was 25.7%, the viability, T/C [32] was 27.5% and the viability, T/C [33] was 23%. The viability, T/C [34] was 27%, the viability, T/C [35] was 25.1% and the viability, T/C [36] was 19.1%.
